Assay results taken from patent US20160176914A1, “GLYCOSYLATED CARDIOTONIC STEROIDS” (priority 2013, published 2016).
Read-outs that look alike come from different tables or passages of the source.

Legend:
[1] = target: α1β1 Na+/K+ ATPase (Homo sapiens, UniProt P05023); assay: Na+/K+ ATPase pump binding, α1β1 isoform (radioactive displacement assay)
Method: (§1) α1/2/3-Na^+/K^+ ATPase pump binding data was assessed for compounds of Table 1.
(§2) Further, from the results, a strong correlation between cancer cell cytotoxicity and α1/3-Na^+/K^+ ATPase pump binding selectivity was observed (see: α-L-amiceto-mono-, di- and tri-saccharides; Scheme 1). In addition, it was observed that mono-saccharides have improved activity and α1/2/3-isoform selectivity. […] The Na^+/K^+ ATPase binding data also correlates with the cytotoxicity data, which can be seen in the binding data of compounds 1.5-1.7 to all three isomers (α1β1/α2β1/α3β1), which decreases proportionally the MTT data (Table 1).

[2] = target: α2β1 Na+/K+ ATPase (Homo sapiens, UniProt P50993); assay: Na+/K+ ATPase pump binding, α2β1 isoform (radioactive displacement assay)
Method: as §1, §2

[3] = target: α3β1 Na+/K+ ATPase (Homo sapiens, UniProt P13637); assay: Na+/K+ ATPase pump binding, α3β1 isoform (radioactive displacement assay)
Method: as §1, §2

[4] = tested on: NCI-H460 cells; assay: cells; format: cell-based, Human; settings: for IC50: Homo sapiens; for cytotoxicity / activity for H460 cells, in words: comparison
Method: (§3) Human non-small cell lung cancer cells (NCI-H460) were purchased from the American Type Culture Collection (Manassas, Va.). NCI-H460 cells were cultured in RPMI 1640 medium supplemented with 10% bovine fetal serum (FBS), 2 mM L-glutamine and 100-units/ml penicillin/streptomycin. All experiments with NCI-H460 cells were performed in medium enriched with 1% FBS serum, 2 mM L-glutamine and 100-units/ml penicillin/streptomycin. 1% FBS was used due to existing concerns about digitoxin binding to serum proteins.
Cells were seeded overnight in 96 well plates at a concentration of 1×10^4 cells/well, and then treated for 48 h with a log10 scale dilution series of the glycosylated CS compounds (e.g., digitoxin or D6-MA) dissolved in sterile filtered DMSO. Subsequently, 10 μl of 5 mg/ml MTT reagent was added to each well and then incubated for 4 h at 37° C. Isopropanol acidified with 0.04 N HCl was used to dissolve converted dye. Absorbance at 570 nm was measured using an Automated Microplate Reader ELx800 (BioTek, Winooski, Vt.). Each experiment was conducted 4 times with 4 replicate wells per concentration.
(§4) All results are presented as mean±standard deviation. For cell viability, ATPase activity and apoptosis assays, dose-response curves and concentrations that caused 50% effect (i.e. IC50) were calculated for the prepared compounds listed in Tables 1-3 in all the cell lines tested using non-linear regression analysis in GraphPad Prism 5.0 (San Diego, Calif.). Two-way analysis of variance (ANOVA) and unpaired two-tailed Student's t-test with α=0.05 were performed to compare the effect of compounds and administered dose on cell viability, apoptosis and quantified protein expression data. Post-hoc Tukey-Kramer HSD tests were conducted on significant ANOVA results. Results were considered significant when p≦0.05.

[5] = tested on: NCI-H460 cells; assay: Apoptosis assay (Hoechst 33342); format: cell-based; settings: Homo sapiens, read-out: Anticancer Apoptosis GI50
Method: as §3
Cells were seeded overnight in 12 or 24 well plates at a concentration of 1×10^5 cell/ml and subsequently treated with different concentrations of the glycosylated CS compounds for 24 h. After treatment, cells were incubated with […] of Hoechst 33342 for 30 min and analyzed for apoptosis by scoring the percentage of cells having intensely condensed chromatin and/or fragmented nuclei using fluorescence microscopy (Leica Microsystems, Bannockburn, Ill.). Approximately 1,000 nuclei from ten random fields were analyzed for each sample. The apoptotic index was calculated as the percentage of cells with apoptotic nuclei over total number of cells.
as §4

[6] = tested on: HCMV; assay: Anti-CMV activity assay, inhibition of HCMV replication in infected HFFs; format: cell-based, human Cytomegalovirus (HCMV); settings: for SI (selectivity index, CC50/EC50): CC50 noninfected HFFs / EC50 infected HFFs
Method: It has been observed that the infection of human foreskin fibroblasts (HFF) cells with HCMV causes an up regulation of the α3-isoform of the Na^+/K^+-Pump. Therefore the inhibition of HCMV replication by the compounds described herein was tested using procedure described by Cai, H. et al., in Med. Chem. Lett. 2014, 5, 395-399, which is incorporated by reference in its entirety. Generally, inhibition of Towne HCMV: pp28-luciferase activity was measured in cell lysates of HCMV-infected HFFs collected at 72 h post infection (hpi). Virus DNA yield in supernatants of HCMV-infected cells collected at 96 hpi was measured by real-time PCR. Plaque reduction assay performed at 8 days postinfection. Data represent mean values (±SD) of triplicate determinations from three independent experiments.
Inhibition of TB40 HCMV: HFFs were infected with HCMV-TB40 strain at MOI of 1 pfu/cell and treated with compounds listed in Tables 1-3 for 3 days.
(§5) The glycosylated cardiotonic steroid compounds were tested for their anti-cytomegalovirus (CMV) activity. Specifically, the compounds were tested for the ability to inhibit HCMV replication. For each compound, the anti-HCMV activity in infected HFFs was expressed as EC50, whereas cytotoxicity in noninfected HFFs was expressed as CC50. Selectivity index (SI), defined as CC50/EC50, was calculated for each compound.

[7] = Cytotoxicity in noninfected HFFs (MTT); format: cell-based, human; settings: human
Method: as §5

[8] = tested on: noninfected HFFs; assay: Cytotoxicity in noninfected HFFs (MTT); format: cell-based, human
Method: as §5

[9] = NCI-H460, 48 h, read-out: Anticancer MTT IC50
[10] = NCI-H460, Table 6, H460 cells, compounds of Table 3, read-out: IC50
[11] = anti-HCMV activity in infected HFFs, read-out: EC50

Compound `CC1O[C@@H](O[C@H]2CCC3(C)C(CC[C@@H]4C3CCC3(C)[C@@H](C5=CC(=O)OC5)CC[C@]43O)C2)C(O)C(O)[C@H]1O` (stereo partly drawn) [Compound 1.2, digitoxigenin α-L-rhamnopyranoside] has a Kd [1] of 27 nM, a Kd [2] of 23 nM and a Kd [3] of 19 nM. The IC50 [4, 9] was 47 nM, the GI50 ([5]; NCI-H460, 24 h) was 2 nM and the “SI (selectivity index, CC50/EC50)” value [6] was 173. The “SI (selectivity index, CC50/EC50)” value ([6]; listed as α-L-Rhamnose (1.2)) was 139.25, the EC50 ([6]; Human betaherpesvirus 5) was 4.77 ± 0.23 nM and the CC50 [7] was 664 ± 185 nM.

`CC1OC(OC2C(C)OC(OC3C(C)OC(OC4CCC5(C)C(CCC6C5CCC5(C)C(C7=CC(=O)OC7)CCC65O)C4)C(O)C3O)C(O)C2O)C(O)C(O)C1O` (centres unmarked) [Compound 1.4] showed a Kd [1] of 393 nM, a Kd [2] of 164 nM and a Kd [3] of 345 nM. It also gave an IC50 [4, 9] of 1350 nM.

`CC1O[C@@H](O[C@H]2CCC3(C)C(CC[C@@H]4C3CCC3(C)[C@@H](C5=CC(=O)OC5)CC[C@]43O)C2)CC[C@H]1O` (stereo partly drawn) [Compound 1.5, digitoxigenin α-L-amecitopyranoside] gave a Kd [1] of 56 nM, a Kd [2] of 38 nM and a Kd [3] of 26 nM. For the same compound, the IC50 [4, 9] was 48 nM, the GI50 ([5]; NCI-H460, 24 h) was 3 nM and the “SI (selectivity index, CC50/EC50)” value [6] was 139. The “SI (selectivity index, CC50/EC50)” value ([6]; listed as α-L-Amicetose (1.5)) was 173.61, the EC50 ([6]; Human betaherpesvirus 5) was 3.77 ± 0.08 nM and the CC50 [7] was 655 ± 177 nM.

Compound `CC1OC(OC2CCC(OC3CCC4(C)C(CCC5C4CCC4(C)C(C6=CC(=O)OC6)CCC54O)C3)OC2C)CCC1O` (centres unmarked) [Compound 1.6] has a Kd [1] of 223 nM, a Kd [2] of 156 nM and a Kd [3] of 186 nM. The IC50 [4, 9] was 510 nM.

In the case of `CC1OC(OC2CCC(OC3CCC(OC4CCC5(C)C(CCC6C5CCC5(C)C(C7=CC(=O)OC7)CCC65O)C4)OC3C)OC2C)CCC1O` (centres unmarked) [Compound 1.7], the Kd [1] is reported as 670 nM, the Kd [2] is reported as 149 nM and the Kd [3] is reported as 736 nM. The IC50 [4, 9] was 3960 nM.

Work on `C[C@H]1O[C@H](O[C@H]2CC[C@@]3(C)[C@H](CC[C@@H]4[C@@H]3C[C@@H](O)[C@]3(C)[C@@H](C5=CC(=O)OC5)CC[C@]43O)C2)CC[C@@H]1O` [Compound 3.1] yielded an IC50 [4, 10] of 253 nM.

`C[C@H]1O[C@H](O[C@H]2CC[C@@]3(C)[C@H](CC[C@@H]4[C@@H]3C[C@@H](O)[C@]3(C)[C@@H](C5=CC(=O)OC5)CC[C@]43O)C2)[C@@H](O)[C@@H](O)[C@@H]1O` [Compound 3.2] gave an IC50 [4, 10] of 486 nM.

`CC(=O)O[C@@H]1C[C@H]2[C@@H](CC[C@@H]3C[C@@H](O[C@H]4CC[C@@H](O)[C@H](C)O4)CC[C@@]32C)[C@@]2(O)CC[C@H](C3=CC(=O)OC3)[C@@]12C` [Compound 3.4] showed an IC50 [4, 10] of 3440 nM.

With `C[C@@H]1O[C@@H](O[C@H]2CC[C@@]3(C)[C@H](CC[C@@H]4[C@@H]3C[C@@H](OC(=O)C(C)(C)C)[C@]3(C)[C@@H](C5=CC(=O)OC5)CC[C@]43O)C2)CC[C@H]1O` [Compound 3.5] the IC50 [4, 10] was no less than 50000 nM and the “cytotoxicity / activity for H460 cells, in words” value [4] was “greatly reduced activity”.

In the case of `C[C@@H]1O[C@@H](O[C@H]2CC[C@@]3(C)[C@H](CC[C@@H]4[C@@H]3C[C@@H](O[Si](C)(C)C(C)(C)C)[C@]3(C)[C@@H](C5=CC(=O)OC5)CC[C@]43O)C2)CC[C@H]1O` [Compound 3.6], the IC50 [4, 10] is reported as 29700 nM.

With `CC(=O)O[C@@H]1C[C@H]2[C@@H](CC[C@@H]3C[C@@H](O[C@@H]4O[C@@H](C)[C@H](O)[C@@H](O)[C@H]4O)CC[C@@]32C)[C@@]2(O)CC[C@H](C3=CC(=O)OC3)[C@@]12C` [Compound 3.8] the IC50 [4, 10] was 5980 nM.

In the case of `C[C@@H]1O[C@@H](O[C@H]2CC[C@@]3(C)[C@H](CC[C@@H]4[C@@H]3C[C@@H](OC(=O)CCl)[C@]3(C)[C@@H](C5=CC(=O)OC5)CC[C@]43O)C2)[C@H](O)[C@H](O)[C@H]1O` [Compound 3.9], the IC50 [4, 10] is reported as 105 nM.

With `C[C@@H]1O[C@@H](O[C@H]2CC[C@@]3(C)[C@H](CC[C@@H]4[C@@H]3C[C@@H](OC(=O)C(C)(C)C)[C@]3(C)[C@@H](C5=CC(=O)OC5)CC[C@]43O)C2)[C@H](O)[C@H](O)[C@H]1O` [Compound 3.10] the IC50 [4, 10] was no less than 50000 nM and the “cytotoxicity / activity for H460 cells, in words” value [4] was “greatly reduced activity”.

In the case of `C[C@@H]1O[C@@H](O[C@H]2CC[C@@]3(C)[C@H](CC[C@@H]4[C@@H]3C[C@@H](O[Si](C)(C)C(C)(C)C)[C@]3(C)[C@@H](C5=CC(=O)OC5)CC[C@]43O)C2)[C@H](O)[C@H](O)[C@H]1O` [Compound 3.11], the IC50 [4, 10] is reported as 2250 nM.

With `C[C@H]1O[C@@H](O[C@H]2[C@@H](O)C[C@H](O[C@H]3[C@@H](O)C[C@H](O[C@H]4CC[C@@]5(C)[C@H](CC[C@@H]6[C@@H]5CC[C@]5(C)[C@@H](C7=CC(=O)OC7)CC[C@]65O)C4)O[C@@H]3C)O[C@@H]2C)C[C@H](O)[C@@H]1O` [Digitoxin, reference compound] the Kd ([1]; first KD column of Table 4, read-out: Na+/K+ATPase inhibition KD, α1β1) was 80 nM, the Kd ([2]; second KD column of Table 4, read-out: Na+/K+ATPase inhibition KD, α2β1) was 38 nM and the Kd ([3]; third KD column of Table 4, head printed α1β1 a second time, read-out: Na+/K+ATPase inhibition KD, α1β1) was 36 nM. For the same compound, the IC50 ([4]; NCI-H460, Table 4, 48 h treatment, unit inferred, read-out: Anticancer MTT IC50) was 357 nM, the IC50 ([4]; NCI-H460, Table 5, H460 cells, compounds of Table 2, read-out: IC50) was 157 nM and the GI50 ([5]; NCI-H460, Table 4, 24 h treatment, unit inferred) was 11 nM. The “SI (selectivity index, CC50/EC50)” value [6] was 120.46, the “SI (selectivity index, CC50/EC50)” value ([6]; listed as digitoxin) was 120 and the EC50 ([6]; Human betaherpesvirus 5) was 23.3 ± 0.67 nM. The CC50 [7] was 2810 ± 668 nM.

In the case of α-D-Amicetose, the EC50 [6, 11] is reported as 37.5 ± 0.52 nM and the CC50 [8] is reported as 1110 ± 273 nM.

In the case of α-D-Mannose, the EC50 [6, 11] is reported as 7.31 ± 0.12 nM.

α-D-Rhamnose showed an EC50 [6, 11] of 26.6 ± 0.88 nM and a CC50 [8] of 2270 ± 551 nM.
